# Test results: patent US12240862B2, “Inhibitors of peptidylarginine deiminases” (Gilead Sciences, Inc., priority 2020, dated 2025)
# Biological target: T1, human PAD4 (Homo sapiens, UniProt Q9UM07)
# T1 construct: human PAD4 (NM_012387), A2P663, was PCR amplified; His-SUMO (N, cleaved yes); made in house; host or cells: E. coli BL21(DE3)
# Assay: In vitro PAD4 BAEE biochemical assay
# Settings: human PAD4, BAEE substrate; 5 nM PAD4, 2 mM calcium chloride, 3 mM BAEE; geometric mean of multiple experiments
# Outline: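 Ammonia generated from BAEE serves as the readout, measured by o-phthalaldehyde after EDTA termination. Final conditions: 5 nM human PAD4 (SUMO tag cleaved), 2 mM CaCl2, 3 mM BAEE, pH 7.6 MOPS buffer, 25 °C for 2 h following a 30-min compound preincubation.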
# T1 sequence (Q9UM07 2-663): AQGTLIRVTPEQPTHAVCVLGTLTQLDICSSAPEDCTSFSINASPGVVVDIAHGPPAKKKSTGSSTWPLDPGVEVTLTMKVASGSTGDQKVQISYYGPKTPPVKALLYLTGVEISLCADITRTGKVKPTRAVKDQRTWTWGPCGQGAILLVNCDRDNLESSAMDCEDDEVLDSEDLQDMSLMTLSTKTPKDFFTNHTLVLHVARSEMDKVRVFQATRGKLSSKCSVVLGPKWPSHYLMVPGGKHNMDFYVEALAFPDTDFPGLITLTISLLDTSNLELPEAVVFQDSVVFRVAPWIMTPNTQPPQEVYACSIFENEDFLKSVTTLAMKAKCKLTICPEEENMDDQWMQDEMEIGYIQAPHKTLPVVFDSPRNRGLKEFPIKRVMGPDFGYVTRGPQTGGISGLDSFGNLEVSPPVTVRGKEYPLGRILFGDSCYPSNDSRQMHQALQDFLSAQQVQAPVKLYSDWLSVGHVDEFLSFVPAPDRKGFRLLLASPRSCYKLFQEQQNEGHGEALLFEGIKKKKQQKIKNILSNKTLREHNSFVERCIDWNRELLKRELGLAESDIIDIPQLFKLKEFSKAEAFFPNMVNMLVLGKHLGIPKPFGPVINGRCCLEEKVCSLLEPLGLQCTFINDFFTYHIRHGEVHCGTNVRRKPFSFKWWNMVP
row,Compound,IC50 [nM]
1,"CS(=O)(=O)N(c1ccc2cc(-c3nc4cc(C(=O)N5CCC[C@@H](N)C5)c(F)cn4c3C3CC3)n(CC3CC3)c2n1)C(F)F [Example 392, ~{N}-[2-[7-[(3~{R})-3-aminopiperidine-1-carbonyl]-3-cyclopropyl-6-fluoroimidazo [1,2-a]pyridin-2-yl]-1-(cyclopropylmethyl)pyrrolo [2,3-b]pyridin-6-yl]-~{N}-(difluoromethyl) methanesulfonamide]",148
2,"COc1cc(C(=O)N2CCC[C@@H](N)C2)cc2nc(-c3cc4ccc([C@@H](C)NC(=O)OC(C)(C)C)nc4n3CC3CC3)c(C)n12 [Example 257, ~{tert}-butyl~{N}-[(1~{R})-1-[2-[7-[(3~{R})-3-aminopiperidine-1-carbonyl]-5-methoxy-3-methylimidazo[1,2-a]pyridin-2-yl]-1-(cyclopropylmethyl)pyrrolo [2,3-b]pyridin-6-yl]ethyl] carbamate]",208
3,"CCc1ccc2cc(-c3nc4cc(C(=O)N5[C@H]6CC[C@@H]5[C@H](N)C6)cc(OC)n4c3C)n(CC(F)(F)F)c2n1 [Example 504, [(1~{R},2~{R},4~{S})-2-amino-7-azabicyclo [2.2.1]heptan-7-yl]-[2-[6-ethyl-1-(2,2,2-trifluoroethyl)pyrrolo[2,3-b]pyridin-2-yl]-5-methoxy-3-methylimidazo[1,2-a]pyridin-7-yl]methanone]",132
4,"COc1cc(C(=O)N2[C@H]3CC[C@@H]2[C@H](N)C3)cc2nc(-c3cc4ccc([C@@H](C)NC(=O)N5CC(C(N)=O)C5)nc4n3CC3CC3)c(C)n12 [Example 225, 1-~{N}-[(1~{R})-1-[2-[7-[(1~{R},2~{R},4~{S})-2-amino-7-azabicyclo[2.2.1]heptane-7-carbonyl]-5-methoxy-3-methylimidazo [1,2-a]pyridin-2-yl]-1-(cyclopropylmethyl)pyrrolo [2,3-b]pyridin-6-yl]ethyl]azetidine-1,3-dicarboxamide]",81.3
5,"COc1cc(C(=O)N2[C@H]3CC[C@@H]2[C@H](N)C3)cc2nc(-c3cc4ccc(N5CCN(C)CCS5(=O)=O)nc4n3CC3CC3)c(C)n12 [Example 443, [(1~{R},2~{R},4~{S})-2-amino-7-azabicyclo [2.2.1]heptan-7-yl]-[2-[1-(cyclopropylmethyl)-6-(5-methyl-1,1-dioxo-1,2,5-thiadiazepan-2-yl)pyrrolo[2,3-b]pyridin-2-yl]-5-methoxy-3-methylimidazo [1,2-a]pyridin-7-yl] methanone]",34.4
6,"COc1cc(C(=O)N2[C@H]3CC[C@@H]2[C@H](N)C3)cc2nc(-c3cc4ccc(C(C)C#N)nc4n3CC3CC3)c(C)n12 (stereo partly drawn) [Example 568, 2-[2-[7-[(1~{R},2~{R}, 4~{S})-2-amino-7-azabicyclo[2.2.1]heptane-7-carbonyl]-5-methoxy-3-methylimidazo[1,2-a]pyridin-2-yl]-1-(cyclopropylmethyl)pyrrolo [2,3-b]pyridin-6-yl] propanenitrile]",133
7,"CCc1cc2c(cc1F)cc(-c1nc3cc(C(=O)N4CCC[C@@H](N)C4)cc(OC)n3c1C)n2CC1CC1 [Example 589, [(3~{R})-3-aminopiperidin-1-yl]-[2-[1-(cyclopropylmethyl)-6-ethyl-5-fluoroindol-2-yl]-5-methoxy-3-methylimidazo[1,2-a]pyridin-7-yl]methanone]",2680
8,"CCn1cc(C(=O)N[C@H](C)c2ccc3cc(-c4nc5cc(C(=O)N6[C@H]7CC[C@@H]6[C@H](N)C7)cc(OC)n5c4C)n(CC4CC4)c3n2)cn1 [Example 77, ~{N}-[(1~{R})-1-[2-[7-[(1~{R},2~{R},4~{S})-2-amino-7-azabicyclo[2.2.1]heptane-7-carbonyl]-5-methoxy-3-methylimidazo [1,2-a]pyridin-2-yl]-1-(cyclopropylmethyl)pyrrolo [2,3-b]pyridin-6-yl]ethyl]-1-ethylpyrazole-4-carboxamide]",30.7
9,"COc1cc(C(=O)N2[C@H]3CC[C@@H]2[C@H](N)C3)cc2nc(-c3cc4ccc([C@@H](C)NC(=O)C5(C)CC5(F)F)nc4n3CC3CC3)c(C)n12 (stereo partly drawn) [Example 102, ~{N}-[(1~{R})-1-[2-[7-[(1~{R},2~{R},4~{S})-2-amino-7-azabicyclo[2.2.1]heptane-7-carbonyl]-5-methoxy-3-methylimidazo [1,2-a]pyridin-2-yl]-1-(cyclopropylmethyl)pyrrolo [2,3-b]pyridin-6-yl]ethyl]-2,2-difluoro-1-methylcyclopropane-1-carboxamide]",46.6
10,"COc1cc(C(=O)N2CCC3(CNC3)C2)cc2nc(-c3cc4ccc(N(C(F)F)S(C)(=O)=O)nc4n3CC3CC3)c(C)n12 [Example 380, ~{N}-[1-(cyclopropylmethyl)-2-[7-(2,6-diazaspiro[3.4]octane-6-carbonyl)-5-methoxy-3-methylimidazo[1,2-a]pyridin-2-yl]pyrrolo[2,3-b]pyridin-6-yl]-~{N}-(difluoromethyl) methanesulfonamide]",24700
11,"COc1cc(C(=O)N2CCC[C@@H](N)C2)cc2nc(-c3cc4ccc([C@@H](C)N(C)C(C)=O)nc4n3CC3CC3)c(C)n12 [Example 187, ~{N}-[(1~{R})-1-[2-[7-[(3~{R})-3-aminopiperidine-1-carbonyl]-5-methoxy-3-methylimidazo [1,2-a]pyridin-2-yl]-1-(cyclopropylmethyl)pyrrolo [2,3-b]pyridin-6-yl]ethyl]-~{N}-methylacetamide]",300
12,"Cc1c(-c2cc3ccc(N(C(F)F)S(C)(=O)=O)nc3n2CC2CC2)nc2cc(C(=O)N3CCC[C@@H](N)C3)cc(N(C)C)n12 [Example 422, ~{N}-[2-[7-[(3~{R})-3-aminopiperidine-1-carbonyl]-5-(dimethylamino)-3-methylimidazo[1,2-a]pyridin-2-yl]-1-(cyclopropylmethyl)pyrrolo [2,3-b]pyridin-6-yl]-~{N}-(difluoromethyl) methanesulfonamide]",6370
13,"CCc1ccc2cc(-c3nc4cc(C(=O)N5CCC[C@@H](N)C5)cc(OC)n4c3C)n(CC3CC3)c2n1 [Example 613, [(3~{R})-3-aminopiperidin-1-yl]-[2-[1-(cyclopropylmethyl)-6-ethylpyrrolo[2,3-b]pyridin-2-yl]-5-methoxy-3-methylimidazo [1,2-a]pyridin-7-yl] methanone]",302
14,"COc1cc(C(=O)N2[C@H]3CC[C@@H]2[C@H](N)C3)cc2nc(-c3cc4ccc([C@@H](C)NC(=O)C5(C)CCOCC5)nc4n3CC3CC3)c(C)n12 [Example 135, ~{N}-[(1~{R})-1-[2-[7-[(1~{R},2~{R},4~{S})-2-amino-7-azabicyclo[2.2.1]heptane-7-carbonyl]-5-methoxy-3-methylimidazo [1,2-a]pyridin-2-yl]-1-(cyclopropylmethyl)pyrrolo [2,3-b]pyridin-6-yl]ethyl]-4-methyloxane-4-carboxamide]",106
15,"C[C@H]1CC[C@@H](N)CN1C(=O)c1ccn2c(C(F)F)c(-c3cc4ccc(N(C(F)F)S(C)(=O)=O)nc4n3CC3CC3)nc2c1 [Example 409, ~{N}-[2-[7-[(2~{S},5~{R})-5-amino-2-methylpiperidine-1-carbonyl]-3-(difluoromethyl)imidazo [1,2-a]pyridin-2-yl]-1-(cyclopropylmethyl)pyrrolo [2,3-b]pyridin-6-yl]-~{N}-(difluoromethyl) methanesulfonamide]",1170
16,"COc1cc(C(=O)N2[C@H]3CC[C@@H]2[C@H](N)C3)cc2nc(-c3cc4ccc([C@@H](C)NC(=O)C5CC(O)(C(F)(F)F)C5)nc4n3CC3CC3)c(C)n12 (stereo partly drawn) [Example 45, ~{N}-[(1~{R})-1-[2-[7-[(1~{R},2~{R},4~{S})-2-amino-7-azabicyclo[2.2.1]heptane-7-carbonyl]-5-methoxy-3-methylimidazo [1,2-a]pyridin-2-yl]-1-(cyclopropylmethyl)pyrrolo[2,3-b]pyridin-6-yl]ethyl]-3-hydroxy-3-(trifluoromethyl) cyclobutane-1-carboxamide]",25.1
17,COc1cc(C(=O)N2[C@H]3CC[C@@H]2[C@H](N)C3)cc2nc(-c3cc4ccc([C@@H](C)N5CCCCC5=O)nc4n3CC3CC3)c(C)n12 [Example 271],35.6
18,"COc1cc(C(=O)N2CCC[C@@H](N)C2)cc2nc(-c3cc4ccc([C@@H](C)NC(=O)C5(CO)CC5)nc4n3CC3CC3)c(C)n12 [Example 129, ~{N}-[(1~{R})-1-[2-[7-[(3~{R})-3-aminopiperidine-1-carbonyl]-5-methoxy-3-methylimidazo [1,2-a]pyridin-2-yl]-1-(cyclopropylmethyl)pyrrolo [2,3-b]pyridin-6-yl]ethyl]-1-(hydroxymethyl) cyclopropane-1-carboxamide]",56.3
19,"COc1cc(C(=O)N2CCC[C@@H](N)C2)cc2nc(-c3cc4ccc(C(C)n5cc(C#N)cn5)nc4n3CC3CC3)c(C)n12 (stereo partly drawn) [Example 548, 1-[1-[2-[7-[(3~{R})-3-aminopiperidine-1-carbonyl]-5-methoxy-3-methylimidazo[1,2-a]pyridin-2-yl]-1-(cyclopropylmethyl)pyrrolo[2,3-b]pyridin-6-yl]ethyl] pyrazole-4-carbonitrile]",532
20,"COc1cc(C(=O)N2[C@H]3CC[C@@H]2[C@H](N)C3)cc2nc(-c3cc4ccc(C(C)(O)c5ccccc5)nc4n3CC3CC3)c(C)n12 (stereo partly drawn) [Example 573, [(1~{R},2~{R},4~{S})-2-amino-7-azabicyclo [2.2.1]heptan-7-yl]-[2-[1-(cyclopropylmethyl)-6-(1-hydroxy-1-phenylethyl)pyrrolo[2,3-b]pyridin-2-yl]-5-methoxy-3-methylimidazo[1,2-a]pyridin-7-yl]methanone]",1000
21,"Cc1c(-c2cc3ccc(N(C(F)F)S(C)(=O)=O)nc3n2CC2CC2)nc2cc(C(=O)N3CCC[C@@H](N)C3)cc(C(F)F)n12 [Example 423, ~{N}-[2-[7-[(3~{R})-3-aminopiperidine-1-carbonyl]-5-(difluoromethyl)-3-methylimidazo[1,2-a]pyridin-2-yl]-1-(cyclopropylmethyl)pyrrolo [2,3-b]pyridin-6-yl]-~{N}-(difluoromethyl) methanesulfonamide]",1770
